Experimental data from patent publication US10273240B2, “Cortistatin analogues, syntheses, and uses thereof” (President and Fellows of Harvard College, priority 2015, dated 2019).
Where two headings read alike, the source gives them in different places.

Tests used:
CDK8 module = target: T1, CDK8 module (Homo sapiens, UniProt P49336); assay: In vitro kinase assay, CDK8 module; type: biochemical
T1 construct: made in house
Procedure: Data was quantified with ImageJ and plotted and fitted with GraphPad Prism 6.0. For STAT1 transactivation domain (TAD), 750 ng of GST-STAT1 TAD (residues 639-750) was incubated with ˜50 ng recombinant CDK8 module at 30° C. for 8 min in kinase buffer (25 mM Tris pH 8, 2 mM DTT, 100 μM cold ATP, 100 mM KCl, 10 mM MgCl2 and 2.5 μCi [γ-^32P] ATP (Perkin Elmer) per reaction). […] 12% SDS-PAGE gels were subsequently silver stained, exposed for 18 h on a Phosphor Screen and imaged (Typhoon 9400, GE Life Sciences). For pol II CTD, 400 ng of GST-CTD (murine sequence) was incubated with ˜40 ng recombinant CDK8 module, 25 ng TFIIH, or 40 ng P-TEFb at 30° C. for 60 min in kinase buffer. Kinase amounts were chosen to give similar total pol II CTD signal. 9% SDS-PAGE gels were silver stained and exposed as above. In vitro FLAG-CDK8 kinase assays used ˜40 ng kinase and 500 ng GST-CTD. […] All experiments were performed twice.

SET-2 = assay: Cell growth assay, SET-2; type: cell-based; details: Homo sapiens
Procedure: (§1) Cell Culture. All media was supplemented with 100 U/mL penicillin and 100 μg/mL streptomycin. Human cancer cell lines were grown in the following media: MV4; 11, RS4; 11, K562, HEL, MOLM-14, MEG-01 in RPMI-1640, 10% FBS; SET-2 in RPMI-1640, 20% FBS; UKE-1 in RPMI-1640, 10% FBS, 10% horse serum and 1 μM hydrocortisone; SKNO-1 and TF-1 in RPMI-1640, 10% FBS, and 10 or 2 ng/mL GM-CSF, respectively; HaCaT in DMEM, 10% FBS; and HCT116 in McCoy's 5 A, 10% FBS (proliferation assay) or DMEM, 10% FBS (gene expression study). HepG2, MV4;11, RS4;11, MEG-01, TF-1, HCT116 and K562 were from ATCC. SKNO-1 was from DSMZ. HEL, UKE-1, and SET-2 were provided by Ross L. Levine and HaCaT, MV4;11-mCLP, and MOLM-14 by Van Wilson, Andrew L. Kung, and Scott A. Armstrong, respectively. MOLM-14 cells were authenticated by STR profiling and flow cytometry and all cell lines were routinely tested and found to be negative for mycoplasma.

[1] = target: T2, ROCK2 in MOLM-14 cell lysate (Homo sapiens, UniProt O75116); assay: Native kinase capture immunoblot, ROCK2; type: binding
T2 construct: endogenous in cells; host or cells: MOLM-14 cell lysate
Procedure: (§2) Native Kinase Capture Immunoblot and Native Kinome-Wide Profiling. […] Experiment was performed twice with one immunoblot shown.

MOLM-14 = assay: Cell growth assay, MOLM-14; type: cell-based; details: Homo sapiens
Procedure: (§3) All media was supplemented with 100 U/mL penicillin and 100 μg/mL streptomycin. Human cancer cell lines were grown in the following media: MV4; 11, K562, MOLM-14 in RPMI-1640, 10% FBS; SKNO-1 in RPMI-1640, 10% FBS, and 10 ng/mL GM-CSF; MV4;11 and K562 were from ATCC. SKNO-1 was from DSMZ.
as §1

[2] = target: T3, GSG2 in MOLM-14 cell lysate (Homo sapiens, UniProt Q8TF76); assay: Native kinase capture immunoblot, GSG2; type: binding
T3 construct: endogenous in cells; host or cells: MOLM-14 cell lysate
Procedure: as §2

[3] = target: T4, CDK12 in MOLM-14 cell lysate (Homo sapiens, UniProt Q9NYV4); assay: Native kinase capture immunoblot, CDK12; type: binding
T4 construct: endogenous in cells; host or cells: MOLM-14 cell lysate
Procedure: as §2

[4] = test system: luciferase-expressing MV4;11 cells; assay: MV4;11 xenotransplant model of disseminated human AML; type: in vivo; details: IP once daily for 15 days, NSG mice
Procedure: In Vivo Studies. Studies were performed at Charles River Laboratories (CRL) and Dana Farber Cancer Institute (DFCI) where indicated and approved by Harvard University and each institution's respective animal care and use committee. For pharmacokinetic studies, serial blood samples from 7 week old male CD-1 mice (n=3 per timepoint) were collected (no blinding) into K2EDTA tubes, centrifuged, transferred into 96-well plates (matrix tubes), stored at −20° C., and analysed by HPLC/MS/MS (in-life performed at CRL). Study size was determined by the need for three blood samples per timepoint with three blood samples collected per mouse. The MV4; 11 xenograft model were performed as previously described (Etchin, J. et al. Antileukemic activity of nuclear export inhibitors that spare normal hematopoietic cells. Leukemia 27, 66-74 (2013); in-life performed at DFCI) Two million MV4;11-mCLP cells were injected into the tail vein of 7-week-old female NOD-SCID-IL2Rcγ^null (NSG) mice (The Jackson Laboratory) and tumor burden was assessed by bioluminescence imaging (BLI) using an IVIS Spectrum system (Caliper Life Sciences). […] After 30 days, blood counts were obtained (Hemavet 950 F, Drew Scientific) and spleen, femur, and peripheral blood cells were collected and analysed by flow cytometry (LSR Fortessa, BD Biosciences) from 3 mice/group. […]

K562 = assay: Cell growth assay, K562; type: cell-based; details: Homo sapiens
Procedure: as §3, §1

UKE-1 = assay: Cell growth assay, UKE-1; type: cell-based; details: Homo sapiens, UKE1, 240 h; CA, after 10 days
Procedure: as §1

T4 sequence (Q9NYV4 whole entry): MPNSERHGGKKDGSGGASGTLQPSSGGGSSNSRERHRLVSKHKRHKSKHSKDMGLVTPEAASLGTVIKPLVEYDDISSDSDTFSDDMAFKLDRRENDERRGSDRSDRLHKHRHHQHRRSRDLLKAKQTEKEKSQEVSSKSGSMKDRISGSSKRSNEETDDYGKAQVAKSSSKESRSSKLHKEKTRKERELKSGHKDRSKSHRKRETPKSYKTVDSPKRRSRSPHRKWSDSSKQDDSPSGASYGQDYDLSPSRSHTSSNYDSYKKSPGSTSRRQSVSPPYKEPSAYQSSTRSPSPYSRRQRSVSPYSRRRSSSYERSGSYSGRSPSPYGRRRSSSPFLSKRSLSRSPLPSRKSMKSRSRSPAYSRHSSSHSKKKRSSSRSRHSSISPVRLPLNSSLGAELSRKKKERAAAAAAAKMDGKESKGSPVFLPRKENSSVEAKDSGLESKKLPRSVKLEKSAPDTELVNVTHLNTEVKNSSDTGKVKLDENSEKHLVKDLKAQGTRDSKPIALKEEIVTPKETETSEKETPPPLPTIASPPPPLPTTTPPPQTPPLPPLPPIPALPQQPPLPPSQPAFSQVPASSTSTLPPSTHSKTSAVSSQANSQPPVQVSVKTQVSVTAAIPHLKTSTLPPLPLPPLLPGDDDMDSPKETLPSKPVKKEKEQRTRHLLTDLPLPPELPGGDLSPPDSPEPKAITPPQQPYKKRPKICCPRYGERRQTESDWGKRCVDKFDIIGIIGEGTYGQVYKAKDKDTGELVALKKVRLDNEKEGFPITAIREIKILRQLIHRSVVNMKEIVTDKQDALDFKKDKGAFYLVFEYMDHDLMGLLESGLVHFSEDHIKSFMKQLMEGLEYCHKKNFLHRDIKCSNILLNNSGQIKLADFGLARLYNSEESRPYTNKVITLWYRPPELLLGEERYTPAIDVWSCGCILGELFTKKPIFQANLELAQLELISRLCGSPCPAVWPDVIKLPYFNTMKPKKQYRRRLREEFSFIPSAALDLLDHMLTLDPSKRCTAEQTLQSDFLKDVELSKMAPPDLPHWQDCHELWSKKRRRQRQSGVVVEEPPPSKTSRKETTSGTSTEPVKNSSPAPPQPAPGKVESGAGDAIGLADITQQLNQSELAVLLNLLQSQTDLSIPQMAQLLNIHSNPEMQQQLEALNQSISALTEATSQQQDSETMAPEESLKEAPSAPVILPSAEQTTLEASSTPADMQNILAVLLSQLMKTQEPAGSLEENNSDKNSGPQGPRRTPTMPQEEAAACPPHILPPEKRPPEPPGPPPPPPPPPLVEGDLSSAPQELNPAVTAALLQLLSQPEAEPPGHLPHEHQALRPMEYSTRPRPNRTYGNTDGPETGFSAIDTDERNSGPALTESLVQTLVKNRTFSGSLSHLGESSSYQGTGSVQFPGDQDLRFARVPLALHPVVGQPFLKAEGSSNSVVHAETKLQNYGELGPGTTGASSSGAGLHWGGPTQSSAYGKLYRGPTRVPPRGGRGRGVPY
T4 sequence (O75909 whole entry partner): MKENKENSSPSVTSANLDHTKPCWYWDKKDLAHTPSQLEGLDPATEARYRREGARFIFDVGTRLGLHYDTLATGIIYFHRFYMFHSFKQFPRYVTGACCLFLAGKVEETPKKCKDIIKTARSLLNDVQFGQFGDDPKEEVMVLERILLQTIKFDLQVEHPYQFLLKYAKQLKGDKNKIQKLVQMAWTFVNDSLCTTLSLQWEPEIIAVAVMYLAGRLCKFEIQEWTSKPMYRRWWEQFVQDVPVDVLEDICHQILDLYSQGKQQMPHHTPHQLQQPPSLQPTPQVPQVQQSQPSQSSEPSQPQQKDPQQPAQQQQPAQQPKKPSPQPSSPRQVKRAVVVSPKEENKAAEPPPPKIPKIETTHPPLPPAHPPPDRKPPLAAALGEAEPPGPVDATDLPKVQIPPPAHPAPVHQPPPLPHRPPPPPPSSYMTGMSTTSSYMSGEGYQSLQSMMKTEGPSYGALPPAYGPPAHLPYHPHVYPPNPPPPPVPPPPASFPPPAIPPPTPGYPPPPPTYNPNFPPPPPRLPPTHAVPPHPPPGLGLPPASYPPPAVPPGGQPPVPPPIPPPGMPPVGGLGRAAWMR
T3 sequence (Q8TF76 whole entry): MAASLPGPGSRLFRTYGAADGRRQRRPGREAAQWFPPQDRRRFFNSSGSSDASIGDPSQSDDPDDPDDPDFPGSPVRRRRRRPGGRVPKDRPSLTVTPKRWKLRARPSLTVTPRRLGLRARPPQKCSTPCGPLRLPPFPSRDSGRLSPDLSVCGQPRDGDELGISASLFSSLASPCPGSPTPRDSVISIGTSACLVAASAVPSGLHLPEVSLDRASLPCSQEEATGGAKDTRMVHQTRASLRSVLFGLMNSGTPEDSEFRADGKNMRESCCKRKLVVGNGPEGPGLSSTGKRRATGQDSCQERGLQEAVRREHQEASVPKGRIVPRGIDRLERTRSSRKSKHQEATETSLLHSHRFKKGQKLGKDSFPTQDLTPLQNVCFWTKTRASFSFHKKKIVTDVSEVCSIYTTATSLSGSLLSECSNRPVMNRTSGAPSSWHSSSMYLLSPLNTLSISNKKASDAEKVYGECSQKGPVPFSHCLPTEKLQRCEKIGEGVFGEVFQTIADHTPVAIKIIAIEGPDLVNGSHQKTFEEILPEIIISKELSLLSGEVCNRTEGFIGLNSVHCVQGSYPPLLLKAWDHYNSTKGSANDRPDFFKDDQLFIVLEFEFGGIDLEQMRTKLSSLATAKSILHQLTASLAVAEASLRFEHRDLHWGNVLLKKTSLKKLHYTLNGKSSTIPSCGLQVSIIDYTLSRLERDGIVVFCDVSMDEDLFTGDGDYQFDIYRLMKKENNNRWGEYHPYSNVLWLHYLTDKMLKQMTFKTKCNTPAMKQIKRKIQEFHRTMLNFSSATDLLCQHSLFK
T2 sequence (O75116 whole entry): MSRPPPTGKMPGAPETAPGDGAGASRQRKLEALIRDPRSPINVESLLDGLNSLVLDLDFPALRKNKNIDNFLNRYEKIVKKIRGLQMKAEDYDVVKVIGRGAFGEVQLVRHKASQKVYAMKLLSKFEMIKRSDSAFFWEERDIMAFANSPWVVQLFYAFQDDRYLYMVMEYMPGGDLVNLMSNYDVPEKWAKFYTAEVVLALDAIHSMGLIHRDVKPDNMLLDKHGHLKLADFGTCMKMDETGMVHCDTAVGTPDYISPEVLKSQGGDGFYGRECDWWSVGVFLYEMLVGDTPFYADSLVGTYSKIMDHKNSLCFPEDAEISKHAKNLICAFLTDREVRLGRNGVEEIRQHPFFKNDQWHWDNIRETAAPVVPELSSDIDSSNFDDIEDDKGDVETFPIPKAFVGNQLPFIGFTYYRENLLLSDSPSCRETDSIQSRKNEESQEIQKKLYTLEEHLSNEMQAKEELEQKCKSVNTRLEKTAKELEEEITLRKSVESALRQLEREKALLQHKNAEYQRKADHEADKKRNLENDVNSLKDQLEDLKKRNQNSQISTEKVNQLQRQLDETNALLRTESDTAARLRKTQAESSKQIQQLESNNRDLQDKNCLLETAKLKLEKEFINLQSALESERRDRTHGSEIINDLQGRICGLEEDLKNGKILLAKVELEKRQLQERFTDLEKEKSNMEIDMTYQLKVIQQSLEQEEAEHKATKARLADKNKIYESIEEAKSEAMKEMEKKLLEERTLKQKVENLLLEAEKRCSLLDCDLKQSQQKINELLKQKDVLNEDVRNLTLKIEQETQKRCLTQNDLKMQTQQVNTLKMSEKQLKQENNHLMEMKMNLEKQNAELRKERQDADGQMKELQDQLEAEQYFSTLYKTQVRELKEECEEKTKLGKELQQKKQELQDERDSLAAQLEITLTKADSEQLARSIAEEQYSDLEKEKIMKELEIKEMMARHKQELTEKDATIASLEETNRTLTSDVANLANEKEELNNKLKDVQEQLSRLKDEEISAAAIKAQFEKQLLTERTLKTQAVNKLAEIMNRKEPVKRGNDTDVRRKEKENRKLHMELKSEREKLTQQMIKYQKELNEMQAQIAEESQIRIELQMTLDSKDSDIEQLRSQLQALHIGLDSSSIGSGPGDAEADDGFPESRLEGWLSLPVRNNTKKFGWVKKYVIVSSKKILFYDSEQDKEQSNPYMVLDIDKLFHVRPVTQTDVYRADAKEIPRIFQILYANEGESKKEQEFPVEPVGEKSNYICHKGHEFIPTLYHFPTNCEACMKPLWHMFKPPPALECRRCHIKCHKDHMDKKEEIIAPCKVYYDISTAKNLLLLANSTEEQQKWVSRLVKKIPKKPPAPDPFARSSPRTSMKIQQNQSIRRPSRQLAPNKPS

`CN(C)[C@H]1C[C@@]23CC[C@@]4(O2)C(=CC[C@@]2(C)[C@@H](c5ccc6ccncc6c5)CC[C@H]24)C=C3[C@@H](O)[C@@H]1O` [CA, cortistatin A] was tested, and the “inhibition of kinase activity of the CDK8 module” value (CDK8 module) was “potently inhibited”, the GI50 (SET-2; SET-2, 240 h, CA, after 10 days, read-out: Mean GI50 (nM), SET-2) was 4 nM and the GI50 (SET-2; SET-2, Table 5, read-out: GI50 (nM), SET2) was 4 nM. The “binding of ROCK2 (no binding up to)” value [1] was over 2500 nM, the GI50 (MOLM-14; MOLM-14, 240 h, CA, after 10 days, read-out: Mean GI50 (nM), MOLM-14) was 5 nM and the GI50 (MOLM-14; MOLM-14, 240 h, read-out: MOLM14 GI50 day 10) was 5 nM. The GI50 (MOLM-14; MOLM-14, Table 5, read-out: GI50 (nM), MOLM-14) was 5 nM, the “binding of GSG2 (no binding at up to)” value [2] was over 2500 nM and the “binding of CDK12 (no binding at up to)” value [3] was over 2500 nM. For the same molecule, the “disease progression (bioluminescence, spleen weight, leukemia cell burden, survival)” value [4] was “dose-dependent reduction in disease progression”, the “median extension in survival” value [4] was 29.5 days and the GI50 (K562; K562, 240 h, CA, after 10 days, read-out: Mean GI50 (nM), K562) was over 1000 nM. The GI50 (K562; K562, 240 h, read-out: K562 GI50 day 10) was over 1000 nM, the GI50 (K562; K562, Table 5, read-out: GI50 (nM), K562) was over 1000 nM and the GI50 (UKE-1) was 7 nM.
